Measurements from BindingDB's records for doi:10.1021/acs.jmedchem.0c01420 (Ochanomizu University, 2021).

Experiment: Agonist activity at VDR in human HL-60 cells assessed as induction of cell differentiation of promyelocytes to monocytes after 4 days by NBT reduction assay

Structure (SMILES) | EC50 [µM]
C[C@H](CCC(=O)O)[C@H]1CC[C@H]2[C@@H]3CC[C@@H]4C[C@@H](CC(C)(C)O)CC[C@]4(C)[C@H]3CC[C@]12C | 0.036
C[C@H](CCC(=O)O)[C@H]1CC[C@H]2[C@@H]3CC[C@@H]4C[C@H](CC(C)(C)O)CC[C@]4(C)[C@H]3CC[C@]12C | 0.00053
